The source of these data is EPA's ToxRefDB 2.

The subject of data set [1] is mouse. The settings on record: Chronic toxicity, cd1, Oral, Feed, dose end: 109 week, group: systemic.
Data set [2] relates to mouse. The settings on record: Carcinogenicity, b6c3f1, Oral, Gavage/Intubation, dose end: 103 week, group: systemic.
For data set [3], the system named is mouse. The settings on record: Sub-acute repeat dose toxicity; b6c3f1; Oral; Gavage/Intubation; dose end: 16 day; group: systemic; systemic / in life observation / clinical signs / altered breathing rate + systemic / in life observation / clinical signs / ataxia + ….
The subject of data set [4] is rat. To be noted: Sub-acute repeat dose toxicity; fischer; Oral; Gavage/Intubation; dose end: 16 day; group: systemic; systemic / in life observation / clinical signs / altered breathing rate + systemic / in life observation / clinical signs / ataxia + ….
Data set [5] concerns rat. To be noted: Subchronic oral toxicity in rodents, fischer, Gavage/Intubation, dose end: 13 week, group: systemic.
Data set [6] has as its system mouse. The settings on record: Subchronic oral toxicity in rodents, b6c3f1, Gavage/Intubation, dose end: 13 week, group: systemic.
Data set [7] concerns rat. To be noted: Carcinogenicity; fischer; Oral; Gavage/Intubation; dose end: 103 week; group: systemic; systemic / pathology microscopic / kidney / nephropathy + systemic / pathology microscopic / liver / degeneration + systemic / pathology ….
The subject of data set [8] is rat. The settings on record: Chronic toxicity, sprague dawley, Oral, Feed, dose end: 110 week.
For data set [9], the system named is mouse. To be noted: Carcinogenicity, b6c3f1, Oral, Gavage/Intubation, dose end: 2 year, group: systemic.
Data set [10] relates to rat. To be noted: Prenatal developmental toxicity study, sprague dawley, Oral, Gavage/Intubation, dose end: 15 GD.
For another data set, the system named is rabbit. The settings on record: Prenatal developmental toxicity study, new zealand white, Oral, Gavage/Intubation, dose end: 18 GD.
In data set [11] the test system is rat. The settings on record: Subchronic oral toxicity in rodents, fischer, Gavage/Intubation, dose end: 13 week, group: systemic. This is another data set of the same source.
The test system of data set [12] is rat. To be noted: Multigenerational reproductive toxicity study, sprague dawley, Oral, Gavage/Intubation, dose end: 2 generation, group: parental.
In data set [13] the test system is rat. The settings on record: Carcinogenicity, fischer, Oral, Gavage/Intubation, dose end: 2 year, group: systemic.
For data set [14], the system named is mouse. To be noted: Subchronic oral toxicity in rodents, b6c3f1, Gavage/Intubation, dose end: 13 week, group: systemic, systemic / in life observation / clinical signs / lethargy + systemic / organ weight / liver / absolute + systemic / organ weight / liver / ….
Data set [15] concerns rat. The settings on record: Fertility (Segment I); sprague dawley; Oral; Gavage/Intubation; dose end: 4 week; group: parental; systemic / organ weight / epididymis / relative to body weight + systemic / pathology microscopic / epididymis / [other] + systemic / ….
Data set [16] relates to rat. The settings on record: Carcinogenicity; fischer; Oral; Feed; dose end: 103 week; group: systemic; systemic / in life observation / clinical signs / drooping eyelids (ptosis) + systemic / pathology microscopic / adrenal gland / ….
Data set [17] deals with mouse. The settings on record: Subchronic oral toxicity in rodents, b6c3f1, Feed, dose end: 13 week, group: systemic, systemic / in life observation / body weight / body weight.
The subject of data set [18] is mouse. The settings on record: Carcinogenicity, b6c3f1, Oral, Feed, dose end: 103 week, group: systemic.
Data set [19] concerns rat. The settings on record: Multigenerational reproductive toxicity study, other, Oral, Feed, dose end: 3 generation, group: parental.
The mark [20] stands for this setting: systemic / in life observation / body weight / body weight gain.
Setting [21] is: systemic / organ weight / liver / nos.
[22] abbreviates: systemic / pathology microscopic / liver / eosinophilic focus + systemic / pathology microscopic / liver / syncytial alteration.
The mark [23] stands for this setting: systemic / pathology microscopic / liver / eosinophilic focus + systemic / pathology microscopic / liver / syncytial alteration + systemic….
Setting [24] is: systemic / organ weight / liver / absolute + systemic / organ weight / liver / relative to body weight + systemic / pathology microscopic / ….
[25] abbreviates: group: cholinesterase, cholinesterase / cholinesterase / cholinesterase / plasma cholinesterase (che).
The mark [26] stands for this setting: group: systemic, systemic / clinical chemistry / cholesterol / cholesterol.
Setting [27] is: group: systemic, systemic / clinical chemistry / cholesterol / cholesterol + systemic / clinical chemistry / glucose / glucose + systemic / clinical ….
Where [28] appears, read: systemic / in life observation / body weight / body weight + systemic / pathology microscopic / thyroid gland / hyperplasia + systemic / ….
The mark [29] stands for this setting: systemic / pathology microscopic / thyroid gland / hyperplasia + systemic / pathology microscopic / liver / cytomegaly + systemic / ….
Setting [30] is: group: developmental, systemic / in life observation / body weight / fetal weight.
[31] abbreviates: group: maternal, systemic / in life observation / clinical signs / urine, discoloration.
[32] abbreviates: group: maternal, systemic / in life observation / clinical signs / urine, discoloration + systemic / in life observation / body weight / body weight + ….
The mark [33] stands for this setting: group: developmental, developmental / developmental malformation / bone / bent + developmental / developmental malformation / eye / microphthalmia.
The mark [34] stands for this setting: group: maternal, systemic / in life observation / body weight / body weight + systemic / in life observation / body weight / body weight gain + systemic / in….
[35] abbreviates: systemic / organ weight / liver / absolute + systemic / organ weight / liver / relative to body weight.
The mark [36] stands for this setting: systemic / in life observation / clinical signs / tremors + systemic / in life observation / body weight / body weight gain.
Setting [37] is: systemic / in life observation / body weight / body weight + systemic / organ weight / kidney / relative to body weight + systemic / ….
Setting [38] is: systemic / in life observation / body weight / body weight + systemic / pathology microscopic / blood / leukemia mononuclear.
Where [39] appears, read: systemic / in life observation / body weight / body weight.
The mark [40] stands for this setting: systemic / in life observation / body weight / body weight + systemic / pathology microscopic / mammary gland / mixed tumor malignant + ….
The mark [41] stands for this setting: systemic / in life observation / mortality / mortality + systemic / pathology microscopic / liver / hypertrophy + systemic / pathology ….

By LOAEL is commonly meant the lowest dose or exposure tested at which an adverse effect was seen. A word on the NOAEL: it is the highest dose or exposure tested at which no adverse effect was seen. On to `O=c1ccc2ccccc2o1` [Coumarin], for which the LEL with mouse [1] (setting [20]) came to 85.8 mg/kg/day; with mouse [2] (setting [23]), 50 mg/kg/day; in the data set on mouse [3], 300 mg/kg/day; in the data set on rat [4], 400 mg/kg/day; with rat [5] (systemic / hematology / erythrocyte (rbc) count differential / erythrocyte (rbc) + systemic / hematology / mean corpuscular (cell) volume (…) it was 75 mg/kg/day; with mouse [6] (systemic / hematology / mean corpuscular (cell) volume (mcv) / mean corpuscular (cell) volume (mcv) + systemic / hematology / mean …), 38 mg/kg/day. For the same compound, the LEL was found to be 25 mg/kg/day in the data set on rat [7], 16 mg/kg/day with rat [8] (setting [25]) and 13 mg/kg/day in the data set with rat [8] (setting [26]). In addition, the NEL in the data set with mouse [1] (systemic / in life observation / body weight / body weight gain + systemic / in life observation / food consumption / food efficiency) was 26.2 mg/kg/day; in the data set on mouse [2] (setting [23]), less than 50 mg/kg/day; in the data set on mouse [3], 150 mg/kg/day; in the data set with rat [4], 200 mg/kg/day; with rat [5] (setting [24]) it was 38 mg/kg/day; in the data set with mouse [6] (systemic / in life observation / body weight / body weight + systemic / in life observation / body weight / body weight gain + systemic / …) it was 19 mg/kg/day. Further, the NEL is less than 25 mg/kg/day in the data set on rat [7], less than 16 mg/kg/day in the data set with rat [8] (setting [25]) and less than 13 mg/kg/day in the data set with rat [8] (setting [26]). Moreover, the LOAEL is greater than 271 mg/kg/day in the data set on mouse [1] (setting [21]); 50 mg/kg/day in the data set with mouse [2] (setting [22]); 300 mg/kg/day in the data set with mouse [3]; greater than 400 mg/kg/day in the data set with rat [4]; 150 mg/kg/day in the data set on rat [5] (setting [24]); 300 mg/kg/day in the data set with mouse [6] (setting [24]). Further, the results for the LOAEL in the data set on rat [7], with rat [8] (setting [25]) and in the data set with rat [8] (setting [27]) were 25 mg/kg/day, greater than 283 mg/kg/day and greater than 234 mg/kg/day, respectively. In addition, the NOAEL in the data set with mouse [1] (setting [21]) was no less than 271 mg/kg/day; in the data set with mouse [2] (setting [22]), less than 50 mg/kg/day; with mouse [3] it was 150 mg/kg/day; in the data set on rat [4], no less than 400 mg/kg/day; with rat [5] (setting [24]), 75 mg/kg/day; in the data set on mouse [6] (setting [24]) it was 150 mg/kg/day. Further, the NOAEL in the data set on rat [7] was less than 25 mg/kg/day; in the data set on rat [8] (setting [25]), no less than 283 mg/kg/day; with rat [8] (setting [27]), no less than 234 mg/kg/day.

In the case of `Oc1ccc(O)cc1` [Hydroquinone], the LOAEL in the data set on mouse [9] (setting [28]) is 100 mg/kg/day; in the data set on rat [10] (setting [30]), greater than 300 mg/kg/day; with rat [10] (setting [32]) it was greater than 300 mg/kg/day; in the data set with rabbit (setting [33]), greater than 150 mg/kg/day; with rabbit (setting [34]), greater than 150 mg/kg/day; with rat [11] (systemic / in life observation / clinical signs / lethargy + systemic / pathology microscopic / kidney / degeneration + systemic / pathology…), 200 mg/kg/day. For the same compound, the LOAEL is greater than 150 mg/kg/day with rat [12] (setting [36]), 50 mg/kg/day with rat [13] (setting [37]) and greater than 400 mg/kg/day with mouse [14]. Further, the NOAEL is 50 mg/kg/day in the data set with mouse [9] (setting [28]); no less than 300 mg/kg/day in the data set on rat [10] (setting [30]); no less than 300 mg/kg/day in the data set on rat [10] (setting [32]); no less than 150 mg/kg/day in the data set on rabbit (setting [33]); no less than 150 mg/kg/day with rabbit (setting [34]); 100 mg/kg/day in the data set with rat [11] (systemic / organ weight / liver / absolute + systemic / organ weight / liver / relative to body weight + systemic / in life observation / …). Moreover, the NOAEL was no less than 150 mg/kg/day in the data set on rat [12] (setting [36]), 25 mg/kg/day with rat [13] (setting [37]) and no less than 400 mg/kg/day with mouse [14]. Besides, the LEL with mouse [9] (setting [29]) turned out to be 50 mg/kg/day; in the data set with rat [10] (setting [30]), 300 mg/kg/day; in the data set with rat [10] (setting [31]), 30 mg/kg/day; in the data set with rabbit (setting [33]) it was 150 mg/kg/day; with rabbit (group: maternal, systemic / in life observation / food consumption / food consumption), 75 mg/kg/day; in the data set with rat [11] (setting [35]), 25 mg/kg/day. The LEL with rat [12] (setting [36]) is 150 mg/kg/day; in the data set with rat [13] (setting [38]), 25 mg/kg/day; in the data set with mouse [14] it was 25 mg/kg/day. Besides, the NEL is less than 50 mg/kg/day with mouse [9] (setting [29]); 100 mg/kg/day with rat [10] (setting [30]); less than 30 mg/kg/day with rat [10] (setting [31]); 75 mg/kg/day with rabbit (setting [33]); 25 mg/kg/day in the data set with rabbit (setting [34]); less than 25 mg/kg/day in the data set with rat [11] (setting [35]). Moreover, the NEL in the data set with rat [12] (systemic / in life observation / clinical signs / tremors) is 50 mg/kg/day; with rat [13] (setting [38]) it was less than 25 mg/kg/day; with mouse [14], less than 25 mg/kg/day.

On to `COS(C)(=O)=O` [Methyl methanesulfonate], for which, in the data set on rat [15], the LEL was 20 mg/kg/day, the LOAEL was greater than 20 mg/kg/day, the NEL is less than 20 mg/kg/day and the NOAEL is no less than 20 mg/kg/day.

For `COC(=O)[C@H]1[C@H]2C[C@@H]3c4[nH]c5cc(OC)ccc5c4CCN3C[C@H]2C[C@@H](OC(=O)c2cc(OC)c(OC)c(OC)c2)[C@@H]1OC` [Reserpine], in the data set on rat [16], the LEL stood at 0.25 mg/kg/day, the LOAEL was greater than 0.5 mg/kg/day, the NEL is less than 0.25 mg/kg/day and the NOAEL is no less than 0.5 mg/kg/day. For the same compound, in the data set on mouse [17], the LEL was determined as 0.06 mg/kg/day, the LOAEL stood at 0.225 mg/kg/day, the NEL is less than 0.06 mg/kg/day and the NOAEL is 0.12 mg/kg/day. Also, in the data set with mouse [18] (setting [39]), the LOAEL is 0.75 mg/kg/day and the NOAEL is less than 0.75 mg/kg/day. Also, in the data set with mouse [18] (setting [40]), the LEL is 0.75 mg/kg/day and the NEL was less than 0.75 mg/kg/day.

For the compound `ClC1C(Cl)C(Cl)C(Cl)C(Cl)C1Cl` (stereo not drawn) [beta-Hexachlorocyclohexane], in the data set on rat [19] (setting [20]), the LEL was 6.25 mg/kg/day and the NEL is less than 6.25 mg/kg/day. In the data set on rat [19] (setting [41]), the LOAEL was greater than 12.5 mg/kg/day and the NOAEL was no less than 12.5 mg/kg/day.
